Where two headings read alike, the source gives them in different places.
Legend:
[1] = test system: [3H]-LCGA-17 binding site in rat brain membranes (putative α2δ); assay: [3H]-LCGA-17 radioligand competition binding assay
Danio rerio [2] = assay: Novel tank test (NTT); format: in vivo; conditions: for NTT. Time spent in upper half of tank, Median: 10 min after injection, 5 min; for NTT. Time spent in upper half of tank, Median / NTT. Distance traveled, Median: exp group
Procedure: (§1) Control groups were treated in parallel with vehicle alone. For drug injection, the fish were anesthetized briefly by placing them in 10°C water. The vehicle controls were tested in parallel.
(§2) Behavioral testing was initiated 10 min after drug injection, starting with the novel tank test (NTT), followed immediately thereafter by the light–dark box (LDB) and the social preference test (SPT). The NTT was adapted from [Maximino et al. (2013)] with the behavior video-recorded and the data processed using EthoVision XT14 (Noldus). The distance traveled, speed, number of visits to the bottom, middle and top thirds of the aquarium, respectively, and the times spent in each of these zones during the initial 5 min in the tank were recorded. A decreased time spent at the surface of the NTT apparatus reflects a reduction in exploratory behavior or increased hiding motivation ([Sackerman et al., 2010]). The behavior in the LDB ([Maximino et al., 2011]) and SPT ([Parker et al., 2014]) was video recorded and processed using RealTimer (Open Science LCC, Russia). The fish were added to the center zone of a three-zone aquarium and allowed to adapt for 1–2 min before removal of the septa separating the center from the flanking zones. The time spent and the number of visits to the light and dark flanking zones and the latency to enter the lit zone were recorded during a 5-min session. Stress of fish is associated with increased time spent in the dark compartment (scototaxis) ([Maximino et al., 2011]). For the SPT, the residence time and the number of visits to the three equally sized zones (near the shoal, in the center zone of the aquarium, and near the wall opposite to the shoal) were assessed during a 5-min session. Increased shoal preference (shoaling reflex) is thought to represent a protective response to a predator ([Nguyen et al., 2014]). All behavioral testing was done in the light phase using 500 lux (NTT, LDB) or 200 lux (SPT) illumination.

Danio rerio [3] = assay: Light–dark box (LDB); format: in vivo; conditions: for LDB. Time spent in lit compartment, Median: 5 min session, exp group; for LDB, effect on time spent in the lit compartment vs vehicle: most informative dosage, Figure 2C
Procedure: as §1, §2

Danio rerio [4] = assay: Social preference test (SPT); format: in vivo; conditions: for SPT. Time spent out of shoaling zone, Median: 5 min session, exp group; for SPT, effect on time spent out of the shoaling zone vs vehicle: most informative dosage, Figure 2D
Procedure: as §1, §2

[5] = competition of [3H]-LCGA-17 (16 nM) binding, rat brain membranes, Table S1
[6] = rat brain membranes, result in words
[7] = competition of [3H]-LCGA-17 binding to rat brain (cortical) membranes, text and Figure 3

CCCN(CCC)C1CCc2ccc(O)cc2C1 (centres unmarked) [7-OH-DPAT]
cross-reactivity with / competition at the [3H]-LCGA-17 binding site [1]: no cross-reactivity
IC50 [1, 5]: > 100 µM

CC(=O)[C@H]1CC[C@H]2[C@@H]3CC[C@H]4C[C@H](O)CC[C@]4(C)[C@H]3CC[C@]12C [Allopregnanolone]
IC50 [1]: > 100 µM
cross-reactivity with / competition at the [3H]-LCGA-17 binding site [1]: distinct

NC(N)=NCCCCN=C(N)N [Arcaine]
IC50 [1, 5]: > 100 µM
cross-reactivity with / competition at the [3H]-LCGA-17 binding site [1, 6]: no cross-reactivity

NCC(CC(=O)O)c1ccc(Cl)cc1 (centres unmarked) [Baclofen]
IC50 [1, 5]: > 100 µM
cross-reactivity with / competition at the [3H]-LCGA-17 binding site [1, 6]: no cross-reactivity

CC(C)(C)OC(=O)c1ncn2c1[C@@H]1CCCN1C(=O)c1c(Br)cccc1-2 [Bretazenil]
IC50 [1]: > 100 µM
cross-reactivity with / competition at the [3H]-LCGA-17 binding site [1]: distinct

COc1ccc(-n2nc3c4ccccc4[nH]cc-3c2=O)cc1 [CGS-9895]
IC50 [1, 5]: > 100 µM
cross-reactivity with / competition at the [3H]-LCGA-17 binding site [1, 6]: no cross-reactivity

CCCCCCN(CCCCCC)C(=O)Cc1c(-c2ccc(F)cc2)[nH]c2ccccc12 [FGIN-1-27]
cross-reactivity with / competition at the [3H]-LCGA-17 binding site [1]: distinct
IC50 [1, 5]: > 100 µM

NCCCC(=O)O [GABA, γ-aminobutyric acid]
cross-reactivity with / competition at the [3H]-LCGA-17 binding site [1, 6]: no cross-reactivity

Fc1ccc(C(OCCN2CCN(CCCc3ccccc3)CC2)c2ccc(F)cc2)cc1 [GBR-12909]
IC50 [1, 5]: > 100 µM

NCC1(CC(=O)O)CCCCC1 [Gabapentin]
IC50 [1, 7]: ~11 µM
IC50 ([1]; competition of [3H]-LCGA-17 binding to rat brain (cortical) membranes, text and Figure 3, listed as gabapentin): 11 µM

COc1ccc(-c2ccc(=N)n(CCCC(=O)O)n2)cc1 [Gabazine]
IC50 [1, 5]: > 100 µM
cross-reactivity with / competition at the [3H]-LCGA-17 binding site [1, 6]: no cross-reactivity

Oc1noc2c1CCNC2 [Gaboxadol (THIP), Gaboxadol]
IC50 [1]: > 100 µM
cross-reactivity with / competition at the [3H]-LCGA-17 binding site [1]: distinct

N[C@@H](CCC(=O)O)C(=O)O [Glutamate]
IC50 [1, 5]: > 100 µM
cross-reactivity with / competition at the [3H]-LCGA-17 binding site [1, 6]: no cross-reactivity

NCC(=O)O [Glycine]
IC50 [1]: > 100 µM
cross-reactivity with / competition at the [3H]-LCGA-17 binding site [1]: no cross-reactivity

O=C(CCCN1CCC(O)(c2ccc(Cl)cc2)CC1)c1ccc(F)cc1 [Haloperidol]
cross-reactivity with / competition at the [3H]-LCGA-17 binding site [1, 6]: no cross-reactivity

CC(C(O)c1ccc(O)cc1)N1CCC(Cc2ccccc2)CC1 (centres unmarked) [Ifenprodil]
IC50 [1, 5]: > 100 µM

O=C(c1ccc(F)cc1)C1CCN(CCn2c(=O)[nH]c3ccccc3c2=O)CC1 [Ketanserin]
IC50 [1, 5]: > 100 µM
cross-reactivity with / competition at the [3H]-LCGA-17 binding site [1, 6]: no cross-reactivity

N[C@@]1(C(=O)O)CC[C@H]2[C@H](C(=O)O)[C@H]21 [LY-354740]
IC50 [1, 5]: > 100 µM
cross-reactivity with / competition at the [3H]-LCGA-17 binding site [1, 6]: no cross-reactivity

Cn1ncnc1COc1nn2c(-c3c(F)cccc3F)nnc2cc1C1CCC1 [MK0343]
IC50 [1, 5]: > 100 µM
cross-reactivity with / competition at the [3H]-LCGA-17 binding site [1, 6]: distinct

NCc1cc(=O)[nH]o1 [Muscimol]
cross-reactivity with / competition at the [3H]-LCGA-17 binding site [1]: no cross-reactivity
IC50 [1, 5]: > 100 µM

CN1CCC[C@H]1c1cccnc1 [Nicotine]
IC50 [1]: > 100 µM
cross-reactivity with / competition at the [3H]-LCGA-17 binding site [1]: no cross-reactivity

CCC(C)N(C)C(=O)c1cc2ccccc2c(-c2ccccc2Cl)n1 (centres unmarked) [PK-11195]
IC50 [1, 5]: > 100 µM

CC(=O)[C@H]1CC[C@H]2[C@@H]3CC=C4C[C@@H](O)CC[C@]4(C)[C@H]3CC[C@]12C [Pregnenolone]
IC50 [1, 5]: > 100 µM

C[C@@H](CN1CCC(Cc2ccccc2)CC1)[C@@H](O)c1ccc(O)cc1 [Ro-256981]
IC50 [1, 5]: > 100 µM
cross-reactivity with / competition at the [3H]-LCGA-17 binding site [1, 6]: no cross-reactivity

Cn1c2ccc(F)cc2c2c(C(=O)N3CCCC3)cn(-c3ccccc3)c(=O)c21 [SL 651498]
IC50 [1, 5]: > 100 µM
cross-reactivity with / competition at the [3H]-LCGA-17 binding site [1, 6]: distinct

O=C(N/N=C/c1ccccc1O)c1ccccc1O [Salicylidene salicylhydrazide]
cross-reactivity with / competition at the [3H]-LCGA-17 binding site [1]: distinct
IC50 [1, 5]: > 100 µM

NCCCNCCCCNCCCN [Spermine]
IC50 [1, 5]: > 100 µM
cross-reactivity with / competition at the [3H]-LCGA-17 binding site [1, 6]: no cross-reactivity

O=C(CCCN1CCC2(CC1)C(=O)NCN2c1ccccc1)c1ccc(F)cc1 [Spiperone]
cross-reactivity with / competition at the [3H]-LCGA-17 binding site [1, 6]: no cross-reactivity

CCN1CCCC1CNC(=O)c1cc(S(N)(=O)=O)ccc1OC (centres unmarked) [Sulpiride]
IC50 [1, 5]: > 100 µM
cross-reactivity with / competition at the [3H]-LCGA-17 binding site [1, 6]: no cross-reactivity

CC1(C)CC(=O)c2c(SCCO)sc(-c3nccs3)c2C1 [TB21007]
IC50 [1, 5]: > 100 µM
cross-reactivity with / competition at the [3H]-LCGA-17 binding site [1, 6]: distinct

C[C@]12CC[C@@H](O)C[C@H]1CC[C@@H]1[C@@H]2CC[C@]2(C)[C@@H](C(=O)CO)CC[C@@H]12 [THDOC]
cross-reactivity with / competition at the [3H]-LCGA-17 binding site [1]: distinct
IC50 [1, 5]: > 100 µM

Cc1ccc(-c2nc3ccc(C)cn3c2CC(=O)N(C)C)cc1 [Zolpidem]
IC50 [1]: > 100 µM

COCCCC/C(=N\OCCN)c1ccc(C(F)(F)F)cc1 [fluvoxamine, Fluvoxamine]
NTT. Time spent in upper half of tank, Median (Danio rerio [2]; 5 mg/kg): 41 s
NTT. Distance traveled, Median (Danio rerio [2]; 5 mg/kg): 1267 cm
NTT. Time spent in upper half of tank, Median (Danio rerio [2]; 10 mg/kg): 32 s
NTT. Distance traveled, Median (Danio rerio [2]; 10 mg/kg): 1313 cm
NTT, effect on time spent in the upper half of the tank vs vehicle (Danio rerio [2]; most informative dosage, Figure 2A: LCGA peptides 10 mg/kg, fluvoxamine 5 mg/kg, diazepam 5 mg/kg): anxiolytic-like effect
LDB. Time spent in lit compartment, Median (Danio rerio [3]; 5 mg/kg): 118 s
LDB. Time spent in lit compartment, Median (Danio rerio [3]; 10 mg/kg): 94 s
LDB, effect on time spent in the lit compartment vs vehicle (Danio rerio [3]): Neither fluvoxamine nor the other LCGA peptides affected the behavior
SPT. Time spent out of shoaling zone, Median (Danio rerio [4]; 5 mg/kg): 90 s
SPT. Time spent out of shoaling zone, Median (Danio rerio [4]; 10 mg/kg): 84 s
SPT, effect on time spent out of the shoaling zone vs vehicle (Danio rerio [4]): failed to affect behavior

O=C(O)C1=CCNCC1 [isoguvacine]
cross-reactivity with / competition at the [3H]-LCGA-17 binding site [1, 6]: distinct

AspLysThrGlu (DKTE; printed: AspLysThrGlu) [LCGA-26]
NTT. Time spent in upper half of tank, Median (Danio rerio [2]; 1 mg/kg i.p.): 58 s
NTT. Distance traveled, Median (Danio rerio [2]; 1 mg/kg i.p.): 1365 cm
NTT. Time spent in upper half of tank, Median (Danio rerio [2]; 10 mg/kg): 72 s
NTT. Distance traveled, Median (Danio rerio [2]; 10 mg/kg): 1445 cm
LDB. Time spent in lit compartment, Median (Danio rerio [3]; 1 mg/kg i.p.): 215 s
LDB. Time spent in lit compartment, Median (Danio rerio [3]; 10 mg/kg): 243 s
SPT. Time spent out of shoaling zone, Median (Danio rerio [4]; 1 mg/kg i.p.): 20 s
SPT. Time spent out of shoaling zone, Median (Danio rerio [4]; 10 mg/kg): 27 s

PheLeuProTyr (FLPY; printed: PheLeuProTyr) [LCGA-83]
NTT. Time spent in upper half of tank, Median (Danio rerio [2]; 1 mg/kg i.p.): 73 s
NTT. Distance traveled, Median (Danio rerio [2]; 1 mg/kg i.p.): 1500 cm
NTT. Time spent in upper half of tank, Median (Danio rerio [2]; 10 mg/kg): 76 s
NTT. Distance traveled, Median (Danio rerio [2]; 10 mg/kg): 1589 cm
LDB. Time spent in lit compartment, Median (Danio rerio [3]; 1 mg/kg i.p.): 128 s
LDB. Time spent in lit compartment, Median (Danio rerio [3]; 10 mg/kg): 249 s
LDB, effect on time spent in the lit compartment vs vehicle (Danio rerio [3]): Neither fluvoxamine (5 mg/kg) nor LCGA-59 and LCGA-83 (10 mg/kg) affected the behavior
SPT. Time spent out of shoaling zone, Median (Danio rerio [4]; 1 mg/kg i.p.): 37 s
SPT. Time spent out of shoaling zone, Median (Danio rerio [4]; 10 mg/kg): 46 s
SPT, effect on time spent out of the shoaling zone vs vehicle (Danio rerio [4]): failed to affect behavior

TrpAspGlnVal (WDQV; printed: TrpAspGlnVal) [LCGA-59]
NTT. Time spent in upper half of tank, Median (Danio rerio [2]; 1 mg/kg i.p.): 69 s
NTT. Distance traveled, Median (Danio rerio [2]; 1 mg/kg i.p.): 1730 cm
NTT. Time spent in upper half of tank, Median (Danio rerio [2]; 10 mg/kg): 74 s
NTT. Distance traveled, Median (Danio rerio [2]; 10 mg/kg): 1636 cm
LDB. Time spent in lit compartment, Median (Danio rerio [3]; 1 mg/kg i.p.): 74 s
LDB. Time spent in lit compartment, Median (Danio rerio [3]; 10 mg/kg): 87 s
LDB, effect on time spent in the lit compartment vs vehicle (Danio rerio [3]): Neither fluvoxamine (5 mg/kg) nor LCGA-59 and LCGA-83 (10 mg/kg) affected the behavior
SPT. Time spent out of shoaling zone, Median (Danio rerio [4]; 1 mg/kg i.p.): 52 s
SPT. Time spent out of shoaling zone, Median (Danio rerio [4]; 10 mg/kg): 88 s
SPT, effect on time spent out of the shoaling zone vs vehicle (Danio rerio [4]): failed to affect behavior

pregnenolone sulfate [PREGS]
IC50 [1, 7]: > 100 µM
cross-reactivity with / competition at the [3H]-LCGA-17 binding site [1, 6]: failed to compete
